Here are results for 2 compounds from US12129247B2, “Administration regime for nitrocatechols” (BIAL-PORTELA & CA, S.A., priority 2011, dated 2024).

The nature of data set [1]: Levodopa pharmacokinetics in Parkinson's Disease patients after single COMPOUND A 25, 50, 100 mg (Example 3c). The format is in vivo, human (Parkinson's Disease patients). The settings on record: for Cmax / AUC(0-t) / half-life / Tmax: human, in vivo, oral; for AUC(0-t): read-out: levodopa AUC0-6; for half-life: read-out: levodopa t1/2 (converted). The protocol:
This study was a three-center, double-blind, randomised, placebo-controlled, cross-over study to investigate the tolerability and effect a single administration of three dosages of COMPOUND A (25, 50 and 100 mg) on the levodopa pharmacokinetics, motor response, and erythrocyte soluble catechol-O-methyltransferase activity in 10 Parkinson's Disease patients concomitantly treated with levodopa/dopa-decarboxylase inhibitor.
Subjects were eligible if they presented: a diagnosis of PD according to the UK PDS Brain Bank diagnostic criteria; predictable signs of end-of-dose deterioration despite “optimal” levodopa/AADCi therapy; being treated with a stable regimen of 3 to 8 doses of standard release levodopa/AADCi 100/25 mg per day within at least 1 week prior to randomisation; modified Hoehn and Yahr stage of less than 5 in the off-state; and/or mean duration of OFF stage ≥1.5 h during waking hours. Concomitant anti-Parkinsonian medication (other than apomorphine, entacapone or tolcapone) was allowed in stable doses for at least 4 weeks prior to randomisation.
The study consisted of four consecutive treatment periods, corresponding to the 4 different treatment options (Compound A 25 mg, 50 mg, 100 mg or placebo). In each of the four treatment periods, subjects were to be admitted to the study site 2 days prior to receiving the administration of Compound A/Placebo (Day 1) and were to remain hospitalized (“in-patient”) until 48 h after receiving the administration of Compound A/Placebo. The washout period between administrations was to be at least 10 days. A follow-up visit was to occur approximately 2 weeks after the last treatment administration or early discontinuation. During each period, the COMPOUND A/Placebo capsules were to be co-administered with the morning dose of levodopa/carbidopa 100/25 mg (1 tablet of Sinemet® 25/100) or levodopa/benserazide 100/25 mg (1 tablet of Madopar®/Restex® 125) on Day 3.

The conditions of data set [2]: in vivo; cited from earlier work.
Setting [3] is: Day 2, 24 h before administration of Compound A, Group 1 (placebo group), Sinemet 25/100 or Madopar/Restex 125.
Where [4] appears, read: Day 4, Group 1, 24 h after Placebo.
The mark [5] stands for this setting: 25 mg, Day 2, 24 h before administration of Compound A, Group 2 (25 mg group).
Where [6] appears, read: 50 mg, Day 2, 24 h before administration of Compound A, Group 3 (50 mg group).
The mark [7] stands for this setting: 100 mg, Day 2, 24 h before administration of Compound A, Group 4 (100 mg group).
The mark [8] stands for this setting: Day 3, Group 1, levodopa/AADCi with Placebo.

The structures appear in SMILES notation. Like-named read-outs stand apart in the source and are kept apart here.

As for `N[C@@H](Cc1ccc(O)c(O)c1)C(=O)O` [levodopa, reference compound], the levodopa tmax in data set [1] (setting [3]) and in data set [1] (setting [4]) was 0.5 h in each case. Besides, the Cmax (in general, the highest concentration seen after dosing) in data set [1] (setting [5]) is 2240 ng/mL; in data set [1] (setting [6]) it was 2090 ng/mL; in data set [1] (setting [7]), 1880 ng/mL; in data set [1] (setting [3]) it was 2510 ng/mL; in data set [1] (setting [8]), 2100 ng/mL; in data set [1] (setting [4]), 2130 ng/mL. The AUC(0-t) is 4290 ng·h/mL in data set [1] (setting [5]); 3830 ng·h/mL in data set [1] (setting [6]); 4140 ng·h/mL in data set [1] (setting [7]); 4320 ng·h/mL in data set [1] (setting [3]); 3960 ng·h/mL in data set [1] (setting [8]); 3820 ng·h/mL in data set [1] (setting [4]). Further, the half-life in data set [1] (setting [5]) was 1.63 h; in data set [1] (setting [6]), 1.88 h; in data set [1] (setting [7]), 1.78 h; in data set [1] (setting [3]), 1.7 h; in data set [1] (setting [8]) it was 1.6 h; in data set [1] (setting [4]), 1.96 h. For the same compound, the Tmax (as a rule, the time from dosing to the highest level) in data set [1] (setting [8]) is 0.5 h; in data set [1] (Day 2, 24 h before administration of Compound A, Group 2 (25 mg group)), 0.5 h; in data set [1] (Day 2, 24 h before administration of Compound A, Group 3 (50 mg group)), 0.5 h; in data set [1] (Day 2, 24 h before administration of Compound A, Group 4 (100 mg group)) it was 1 h.

As to `Cc1ccc(C(=O)c2cc(O)c(O)c([N+](=O)[O-])c2)cc1` [Tolcapone, 3,4-dihydroxy-4′-methyl-5-nitrobenzophenone], in data set [2], the terminal half life entry is on record as “around 2 hours”.
